Values quoted from earlier work, collected in patent publication US20180280392A1, “PHARMACEUTICAL PREPARATION COMPRISING CYCLIN INHIBITOR AND PREPARATION METHOD THEREOF” (Jiangsu Hansoh Pharmaceutical Group Co., Ltd., priority 2014, published 2018).
pIC50: −log10 of the molar value. Read-outs that look alike come from different tables or passages of the source.

System: phosphorylation of retinoblastoma tumor suppressor (RB) in MDA-MB-435 breast cancer cells

pIC50 (Ser780 site, read-out: IC50, reduction of phosphorylation of RB on Ser780): 7.18 | pIC50 (Ser795 site, read-out: IC50, reduction of phosphorylation of RB on Ser795): 7.20
Compound: CC(=O)c1c(C)c2cnc(Nc3ccc(N4CCNCC4)cn3)nc2n(C2CCCC2)c1=O [compound of formula I, 6-acetyl-8-cyclopentyl-5-methyl-2-(5-piperazin-1-yl-pyridin-2-yl-amino)-8H-pyrido[2,3-d]pyrimidin-7-one]
